Earlier results on 38 compounds are cited in PMC10323144, “Garbage in, garbage out: how reliable training data improved a virtual screening approach against SARS-CoV-2 MPro” (Frontiers in Pharmacology, 2023).

For the data set, the system named is MPro. The note with it: compiled from peer-reviewed sources (287 compounds) ref the 18 original articles; cited from earlier work.

Take `COc1ccc(CN=c2[nH]c(N3CCC[C@H]3CO)ncc2C(=O)NCc2ncccn2)cc1Cl`: the “Class (MPro activity class)” value was 0 (compounds with IC50 > 20 μM, percentage inhibition <80% at 20 µM or 50 μM, or percentage enzyme inhibition <50% at 10 µM were labelled as INACTIVE).
`COc1cc(OC)nc(O[C@H](C(=O)O)C(OC)(c2ccccc2)c2ccccc2)n1`: the “Class (MPro activity class)” value is 0 (compounds with IC50 > 20 μM, percentage inhibition <80% at 20 µM or 50 μM, or percentage enzyme inhibition <50% at 10 µM were labelled as INACTIVE).
On to `O=C(O)CNC(=O)c1ncc(-c2cccc(Cl)c2)cc1O`, for which the “Class (MPro activity class)” value is given as 0 (compounds with IC50 > 20 μM, percentage inhibition <80% at 20 µM or 50 μM, or percentage enzyme inhibition <50% at 10 µM were labelled as INACTIVE).
`COc1cc(C2OCC3C(c4ccc(OC5OC(CO)C(O)C(O)C5O)c(OC)c4)OCC23)ccc1O` (single isomer, unassigned; (+)) [(+)-Pinoresinol-4-O-β-D-glucopyraside]: the “Class (MPro activity class)” value is listed as 0 (compounds with IC50 > 20 μM, percentage inhibition <80% at 20 µM or 50 μM, or percentage enzyme inhibition <50% at 10 µM were labelled as INACTIVE).
For `N#Cc1ccccc1-c1cc(-c2ccccn2)cn(-c2ccccc2)c1=O` [1 (perampanel), perampanel], the “Class (MPro activity class)” value was 0 (compounds with IC50 > 20 μM, percentage inhibition <80% at 20 µM or 50 μM, or percentage enzyme inhibition <50% at 10 µM were labelled as INACTIVE).
In the case of `O=C(C=Cc1ccc(O)c(O)c1)OC1CC(OC(=O)C=Cc2ccc(O)c(O)c2)(C(=O)O)CC(O)C1O` (centres unmarked) [1,3-Dicaffeoylquinic acid], the “Class (MPro activity class)” value was 0 (compounds with IC50 > 20 μM, percentage inhibition <80% at 20 µM or 50 μM, or percentage enzyme inhibition <50% at 10 µM were labelled as INACTIVE).
Consider `O=c1cc(-c2ccccc2)oc2ccc(O)c(O)c12` [5,6-Dihydroxyflavone], for which the “Class (MPro activity class)” value was 0 (compounds with IC50 > 20 μM, percentage inhibition <80% at 20 µM or 50 μM, or percentage enzyme inhibition <50% at 10 µM were labelled as INACTIVE).
Turning to `COc1cccc2[nH]c(C(=O)NC(CC(C)C)C(=O)NC(CC3CCNC3=O)C(=O)c3nc4ccccc4s3)cc12` (centres unmarked) [5h], the “Class (MPro activity class)” value is recorded as 1 (Compounds with IC50 < 10 µM or with a percentage of enzyme inhibition >50% at 10 µM were labelled as ACTIVE).
For the compound `O=c1cc(-c2ccccc2)oc2cc(O)c(O)cc12` [6,7-Dihydroxyflavone], the “Class (MPro activity class)” value is listed as 0 (compounds with IC50 > 20 μM, percentage inhibition <80% at 20 µM or 50 μM, or percentage enzyme inhibition <50% at 10 µM were labelled as INACTIVE).
As for `O=C(Oc1cncc(Cl)c1)c1cccc2[nH]ccc12` [10_GRL0496], the “Class (MPro activity class)” value is reported as 1 (Compounds with IC50 < 10 µM or with a percentage of enzyme inhibition >50% at 10 µM were labelled as ACTIVE).
Take `O=CC(CC1CCNC1=O)NC(=O)C(Cc1cccc(F)c1)NC(=O)c1cc2ccccc2[nH]1` (centres unmarked) [11b]: the “Class (MPro activity class)” value is 1 (Compounds with IC50 < 10 µM or with a percentage of enzyme inhibition >50% at 10 µM were labelled as ACTIVE).
Consider `O=C(Nc1ccc(N(Cc2ccsc2)C(=O)Cn2nnc3ccccc32)cc1)C1CC1` [16e (ML300)], for which the “Class (MPro activity class)” value is on record as 1 (Compounds with IC50 < 10 µM or with a percentage of enzyme inhibition >50% at 10 µM were labelled as ACTIVE).
Consider `CNc1ccc(N(Cc2ccsc2)C(=O)Cn2nnc3ccccc32)cc1` [16j], for which the “Class (MPro activity class)” value was 1 (Compounds with IC50 < 10 µM or with a percentage of enzyme inhibition >50% at 10 µM were labelled as ACTIVE).
Turning to `O=C(Cn1nnc2ccccc21)N(Cc1ccsc1)c1ccc(-c2ccccc2)cc1` [17a], the “Class (MPro activity class)” value was 1 (Compounds with IC50 < 10 µM or with a percentage of enzyme inhibition >50% at 10 µM were labelled as ACTIVE).
With `COc1cc(Cl)cc(OC(=O)Nc2cccnc2)c1` [AGN-NEW-891393a6-1], the “Class (MPro activity class)” value was 1 (Compounds with IC50 < 10 µM or with a percentage of enzyme inhibition >50% at 10 µM were labelled as ACTIVE).
As for `O=C1N(Cc2cccc(Cl)c2)CCN1c1nccc2[nH]ncc12` [ALP-POS-91609ae9-3], the “Class (MPro activity class)” value is 1 (Compounds with IC50 < 10 µM or with a percentage of enzyme inhibition >50% at 10 µM were labelled as ACTIVE).
As to `CCC(=O)Nc1ccc(N(Cc2ccsc2)C(=O)Cn2nnc3ccccc32)cc1` [ALP-POS-c59291d4-2], the “Class (MPro activity class)” value is recorded as 1 (Compounds with IC50 < 10 µM or with a percentage of enzyme inhibition >50% at 10 µM were labelled as ACTIVE).
With `CC(C)(C)NC(=O)C(c1cccnc1)N(C(=O)c1ccco1)c1ccc(C(C)(C)C)cc1` (centres unmarked) [ALP-POS-c59291d4-6], the “Class (MPro activity class)” value is 1 (Compounds with IC50 < 10 µM or with a percentage of enzyme inhibition >50% at 10 µM were labelled as ACTIVE).
For the compound `CN(C)c1ccc(N(Cc2ccsc2)C(=O)Cn2nnc3ccccc32)cc1` [ALP-POS-d2866bdf-1], the “Class (MPro activity class)” value is reported as 1 (Compounds with IC50 < 10 µM or with a percentage of enzyme inhibition >50% at 10 µM were labelled as ACTIVE).
Turning to `Nc1nc(NC2CC2)c2ncn([C@H]3C=C[C@@H](CO)C3)c2n1` [Abacavir], the “Class (MPro activity class)” value is listed as 0 (compounds with IC50 > 20 μM, percentage inhibition <80% at 20 µM or 50 μM, or percentage enzyme inhibition <50% at 10 µM were labelled as INACTIVE).
As for `C[C@@H]1O[C@@H](O[C@@H]2[C@@H](O)[C@H](OCCc3ccc(O)c(O)c3)O[C@H](CO)[C@H]2OC(=O)/C=C/c2ccc(O)c(O)c2)[C@H](O)[C@H](O)[C@H]1O` [Acteoside], the “Class (MPro activity class)” value is reported as 0 (compounds with IC50 > 20 μM, percentage inhibition <80% at 20 µM or 50 μM, or percentage enzyme inhibition <50% at 10 µM were labelled as INACTIVE).
As to `Cn1c(=O)cc(N2CCC[C@@H](N)C2)n(Cc2ccccc2C#N)c1=O` [Alogliptin], the “Class (MPro activity class)” value is reported as 0 (compounds with IC50 > 20 μM, percentage inhibition <80% at 20 µM or 50 μM, or percentage enzyme inhibition <50% at 10 µM were labelled as INACTIVE).
In the case of `CCOC(=O)[C@H]1O[C@@H]1C(=O)N[C@@H](CC(C)C)C(=O)NCCC(C)C` [Aloxistatin], the “Class (MPro activity class)” value is reported as 0 (compounds with IC50 > 20 μM, percentage inhibition <80% at 20 µM or 50 μM, or percentage enzyme inhibition <50% at 10 µM were labelled as INACTIVE).
For `Cc1c(-c2ccnn2C)cc(C(=O)NCc2ccc(S(C)(=O)=O)cn2)c(=O)n1-c1cccc(C(F)(F)F)c1` [Alvestat], the “Class (MPro activity class)” value is recorded as 0 (compounds with IC50 > 20 μM, percentage inhibition <80% at 20 µM or 50 μM, or percentage enzyme inhibition <50% at 10 µM were labelled as INACTIVE).
Take `CC(C)CN(C[C@@H](O)[C@H](Cc1ccccc1)NC(=O)O[C@H]1CCOC1)S(=O)(=O)c1ccc(N)cc1` [Amprenavir]: the “Class (MPro activity class)” value was 0 (compounds with IC50 > 20 μM, percentage inhibition <80% at 20 µM or 50 μM, or percentage enzyme inhibition <50% at 10 µM were labelled as INACTIVE).
`CC(C)(C#N)c1cc(Cn2cncn2)cc(C(C)(C)C#N)c1` [Anastrozole]: the “Class (MPro activity class)” value is recorded as 0 (compounds with IC50 > 20 μM, percentage inhibition <80% at 20 µM or 50 μM, or percentage enzyme inhibition <50% at 10 µM were labelled as INACTIVE).
Regarding `C=C[C@@H]1C[C@]1(NC(=O)[C@@H]1C[C@@H](Oc2ncc(OC)c3ccc(Cl)cc23)CN1C(=O)[C@@H](NC(=O)OC(C)(C)C)C(C)(C)C)C(=O)NS(=O)(=O)C1CC1` [Asunaprevir], the “Class (MPro activity class)” value is 0 (compounds with IC50 > 20 μM, percentage inhibition <80% at 20 µM or 50 μM, or percentage enzyme inhibition <50% at 10 µM were labelled as INACTIVE).
For `COC(=O)NC(C(=O)NC(Cc1ccccc1)C(O)CN(Cc1ccc(-c2ccccn2)cc1)NC(=O)C(NC(=O)OC)C(C)(C)C)C(C)(C)C` (centres unmarked) [Atanazavir], the “Class (MPro activity class)” value is listed as 0 (compounds with IC50 > 20 μM, percentage inhibition <80% at 20 µM or 50 μM, or percentage enzyme inhibition <50% at 10 µM were labelled as INACTIVE).
As for `CC(C)c1c(C(=O)Nc2ccccc2)c(-c2ccccc2)c(-c2ccc(F)cc2)n1CC[C@@H](O)C[C@@H](O)CC(=O)O` [Atorvastatin], the “Class (MPro activity class)” value is 0 (compounds with IC50 > 20 μM, percentage inhibition <80% at 20 µM or 50 μM, or percentage enzyme inhibition <50% at 10 µM were labelled as INACTIVE).
Consider `NC(=O)[C@@H](CCC(F)(F)F)N(Cc1ccc(-c2ncon2)cc1F)S(=O)(=O)c1ccc(Cl)cc1` [Avagacestat], for which the “Class (MPro activity class)” value is recorded as 0 (compounds with IC50 > 20 μM, percentage inhibition <80% at 20 µM or 50 μM, or percentage enzyme inhibition <50% at 10 µM were labelled as INACTIVE).
For the compound `O=C(c1cc(=O)[nH]c2ccccc12)N1CCN(Cc2ccccc2)CC1` [BEN-DND-7e92b6ca-10], the “Class (MPro activity class)” value is 1 (Compounds with IC50 < 10 µM or with a percentage of enzyme inhibition >50% at 10 µM were labelled as ACTIVE).
As for `COc1cccc(N2CCN(C(=O)c3cc(=O)[nH]c4ccccc34)CC2)c1` [BEN-DND-7e92b6ca-12], the “Class (MPro activity class)” value is reported as 1 (Compounds with IC50 < 10 µM or with a percentage of enzyme inhibition >50% at 10 µM were labelled as ACTIVE).
In the case of `O=C(Cn1ccnc1[N+](=O)[O-])NCc1ccccc1` [BENZNIDAZOLE], the “Class (MPro activity class)” value is recorded as 0 (compounds with IC50 > 20 μM, percentage inhibition <80% at 20 µM or 50 μM, or percentage enzyme inhibition <50% at 10 µM were labelled as INACTIVE).
As for `COc1ccc(NC(=O)c2ccc(C(=N)N(C)C)cc2)c(C(=O)Nc2ccc(Cl)cn2)c1` [BETRIXABAN], the “Class (MPro activity class)” value is 0 (compounds with IC50 > 20 μM, percentage inhibition <80% at 20 µM or 50 μM, or percentage enzyme inhibition <50% at 10 µM were labelled as INACTIVE).
As for `Nc1cc(C(F)(F)F)c(-c2nc(N3CCOCC3)nc(N3CCOCC3)n2)cn1` [BIMIRALISIB], the “Class (MPro activity class)” value is listed as 0 (compounds with IC50 > 20 μM, percentage inhibition <80% at 20 µM or 50 μM, or percentage enzyme inhibition <50% at 10 µM were labelled as INACTIVE).
For `O=c1cc(-c2ccccc2)oc2cc(O)c(O)c(O)c12` [Baicalein], the “Class (MPro activity class)” value is 1 (Compounds with IC50 < 10 µM or with a percentage of enzyme inhibition >50% at 10 µM were labelled as ACTIVE).
Regarding `O=C(O)[C@H]1O[C@@H](Oc2cc3oc(-c4ccccc4)cc(=O)c3c(O)c2O)[C@H](O)[C@@H](O)[C@@H]1O` [Baicalin], the “Class (MPro activity class)” value was 0 (compounds with IC50 > 20 μM, percentage inhibition <80% at 20 µM or 50 μM, or percentage enzyme inhibition <50% at 10 µM were labelled as INACTIVE).
Take `CNC(=O)[C@H](Cc1ccccc1)NC(=O)[C@H](CC(C)C)[C@H](CSc1cccs1)C(=O)NO` [Batimastat]: the “Class (MPro activity class)” value was 0 (compounds with IC50 > 20 μM, percentage inhibition <80% at 20 µM or 50 μM, or percentage enzyme inhibition <50% at 10 µM were labelled as INACTIVE).
